Laboratory results reported in ChEMBL document CHEMBL4028831, “Improvement of hERG-ROMK index of spirocyclic ROMK inhibitors through scaffold optimization and incorporation of novel pharmacophores” (Bioorg Med Chem Lett, 2017).
pIC50: −log10 of the molar value. Each block holds one molecule with its values, some of them ahead of it. Activity calls are given as the source filed them. The rule behind the calls is not given here.

Tests used:
[1] = biological target: Voltage-gated inwardly rectifying potassium channel KCNH2 (Homo sapiens, UniProt Q12809); assay: Displacement of [35S]MK499 from human ERG expressed in HEK293 cells
Homo sapiens = species: Homo sapiens; assay: Selectivity ratio of IC50 for human ERG expressed in HEK293 cells to IC50 for human ROMK expressed in HEK293 cells; format: cell-based
[2] = biological target: T1, ATP-sensitive inward rectifier potassium channel 1 (Homo sapiens, UniProt P48048); assay: Inhibition of human ROMK channel expressed in HEK293 cells after 30 mins by FLIPR based thallium flux assay; format: cell-based
T1 sequence (P48048 whole entry): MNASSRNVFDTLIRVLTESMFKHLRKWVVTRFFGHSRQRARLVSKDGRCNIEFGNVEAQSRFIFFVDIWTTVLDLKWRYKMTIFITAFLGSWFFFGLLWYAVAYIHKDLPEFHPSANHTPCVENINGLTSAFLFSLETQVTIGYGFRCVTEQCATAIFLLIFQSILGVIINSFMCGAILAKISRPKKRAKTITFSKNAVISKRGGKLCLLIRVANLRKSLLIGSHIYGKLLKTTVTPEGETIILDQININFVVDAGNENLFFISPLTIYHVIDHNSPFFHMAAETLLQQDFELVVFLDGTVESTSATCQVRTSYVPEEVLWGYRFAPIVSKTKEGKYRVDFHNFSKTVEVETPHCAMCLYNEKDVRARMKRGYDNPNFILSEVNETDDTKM

Rattus norvegicus [3] = assay: Antihypertensive activity in rat spontaneous hypertensive model assessed as induction of diuresis at 3 mg/kg, po qd measured after 3 days; format: functional, organism-based
Rattus norvegicus [4] = assay: Antihypertensive activity in rat spontaneous hypertensive model assessed as change in systolic blood pressure at 3 mg/kg, po qd measured after 3 days; format: functional
Rattus norvegicus [5] = assay: Antihypertensive activity in rat spontaneous hypertensive model assessed as induction of kaliuresis at 3 mg/kg, po qd measured after 3 days; format: functional, organism-based
[6] = biological target: T1, ATP-sensitive inward rectifier potassium channel 1; assay: Inhibition of human ROMK expressed in CHO cells at -70 mV holding potential after 6 mins by whole cell patch clamp Qpatch method; format: cell-based
[7] = Clearance in Wistar Han rat at 0.5 mg/kg, iv or 1 mg/kg, po; format: ADME, organism-based; conditions: in vivo
[8] = Volume of distribution at steady state in Wistar Han rat at 0.5 mg/kg, iv or 1 mg/kg, po; format: ADME, organism-based; conditions: in vivo, read-out: Vdss
[9] = Oral bioavailability in Wistar Han rat at 1 mg/kg; format: ADME, organism-based; conditions: in vivo
Rattus norvegicus [10] = assay: Dose normalized AUC in Wistar Han rat at 1 mg/kg, po; format: ADME, organism-based; conditions: in vivo
Rattus norvegicus [11] = assay: Antihypertensive activity in rat spontaneous hypertensive model assessed as induction of natriuresis at 3 mg/kg, po qd measured after 3 days; format: functional, organism-based
[12] = Half life in Wistar Han rat at 0.5 mg/kg, iv or 1 mg/kg, po; format: ADME, organism-based; conditions: in vivo
[13] = Volume of distribution at steady state in Beagle dog at 1 mg/kg, iv; format: ADME, organism-based, Canis lupus familiaris; conditions: in vivo, read-out: Vdss
[14] = Clearance in Beagle dog at 1 mg/kg, iv; format: ADME, organism-based, Canis lupus familiaris; conditions: in vivo
[15] = Half life in Beagle dog at 1 mg/kg, iv; format: ADME, organism-based, Canis lupus familiaris; conditions: in vivo
Rattus norvegicus [16] = assay: Antihypertensive activity in rat spontaneous hypertensive model assessed as change in systolic blood pressure at 25 mg/kg, po qd measured after 3 days; format: functional
[17] = Clearance in rat at 0.5 mg/kg, iv; conditions: in vivo

Chain of Voltage-gated inwardly rectifying potassium channel KCNH2 (Q12809 whole entry): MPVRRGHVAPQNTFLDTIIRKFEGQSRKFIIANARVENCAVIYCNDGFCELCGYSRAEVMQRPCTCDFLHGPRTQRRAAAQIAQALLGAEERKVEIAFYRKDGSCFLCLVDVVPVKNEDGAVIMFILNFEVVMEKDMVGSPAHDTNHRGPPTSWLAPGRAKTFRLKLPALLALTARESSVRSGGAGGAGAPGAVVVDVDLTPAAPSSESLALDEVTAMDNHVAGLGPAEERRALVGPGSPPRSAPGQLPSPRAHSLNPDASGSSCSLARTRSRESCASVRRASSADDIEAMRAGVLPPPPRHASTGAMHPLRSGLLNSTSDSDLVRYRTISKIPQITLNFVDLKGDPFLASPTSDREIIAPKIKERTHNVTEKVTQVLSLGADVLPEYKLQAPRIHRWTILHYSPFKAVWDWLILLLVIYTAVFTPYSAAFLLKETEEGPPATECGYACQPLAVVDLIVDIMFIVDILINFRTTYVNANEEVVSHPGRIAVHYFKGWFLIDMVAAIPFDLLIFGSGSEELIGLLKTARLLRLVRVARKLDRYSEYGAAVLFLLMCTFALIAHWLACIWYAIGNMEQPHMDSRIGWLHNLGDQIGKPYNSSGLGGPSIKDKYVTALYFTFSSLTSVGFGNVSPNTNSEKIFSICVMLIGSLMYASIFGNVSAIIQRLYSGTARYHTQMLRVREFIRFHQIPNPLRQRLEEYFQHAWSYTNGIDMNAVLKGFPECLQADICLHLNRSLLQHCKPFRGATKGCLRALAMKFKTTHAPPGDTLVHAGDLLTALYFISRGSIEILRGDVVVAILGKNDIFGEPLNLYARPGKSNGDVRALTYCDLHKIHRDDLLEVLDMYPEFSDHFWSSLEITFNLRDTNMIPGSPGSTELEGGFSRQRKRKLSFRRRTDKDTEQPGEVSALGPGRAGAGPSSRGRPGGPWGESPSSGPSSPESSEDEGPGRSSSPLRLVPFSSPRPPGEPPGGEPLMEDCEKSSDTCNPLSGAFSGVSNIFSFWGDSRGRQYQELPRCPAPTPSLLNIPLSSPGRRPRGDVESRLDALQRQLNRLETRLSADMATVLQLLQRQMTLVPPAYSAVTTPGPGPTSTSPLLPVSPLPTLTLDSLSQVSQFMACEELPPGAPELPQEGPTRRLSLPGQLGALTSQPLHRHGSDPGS

SMILES: Cc1nc(-n2cnnn2)ccc1[C@@H](O)CN1CCC2(CC1)CCN(c1ccc(=O)n(C)n1)C2=O
pIC50 [1]: 4.76
Ratio IC50 (Homo sapiens): 66

pIC50 [2]: 6.74
SMILES: Cc1c([C@@H](O)CN2CCC3(CC2)CCN(c2cnn(C)c(=O)c2)C3=O)ccc2c1COC2=O

pIC50 [2]: < 5.70
SMILES: Cc1c([C@@H](O)CN2CCC3(CC2)CN(c2ccc(=O)n(C)n2)C3)ccc2c1COC2=O

pIC50 [2]: 7.39
SMILES: Cc1c([C@@H](O)CN2CCC3(CC2)CCN(c2ccc(=O)n(C4CCCC4)n2)C3=O)ccc2c1COC2=O
pIC50 [1]: 4.87
Ratio IC50 (Homo sapiens): 329

pIC50 [6]: 8.10
clearance [7]: 41 mL/min/kg
Vd [8]: 4.2 L/kg
bioavailability [9]: 106%
AUC/dose (Rattus norvegicus [10]): 1 µM·kg·h/mg
half-life [12]: 1.9 h
SMILES: Cc1nsc(N2CCC3(CCN(C[C@H](O)c4ccc5c(c4C)COC5=O)CC3)C2=O)n1
Activity (Rattus norvegicus [3]): Active
Activity (Rattus norvegicus [4]): -10 mmHg
Activity (Rattus norvegicus [5]): inactive
Activity (Rattus norvegicus [11]): Active

SMILES: Cc1nsc(N2CCC3(CCN(C[C@H](O)c4ccc5c(c4C)COC5=O)CC3)C2)n1
pIC50 [1]: 5.38
Ratio IC50 (Homo sapiens): 17

Vd [13]: 0.7 L/kg
pIC50 [6]: 8.30
pIC50 [2]: 7.85
clearance [7]: 7.8 mL/min/kg
clearance [14]: 9.7 mL/min/kg
half-life [15]: 1 h
Vd [8]: 1.8 L/kg
bioavailability [9]: 80%
AUC/dose (Rattus norvegicus [10]): 3.8 µM·kg·h/mg
half-life [12]: 4.1 h
SMILES: COc1nccc(N2CCC3(CCN(C[C@H](O)c4ccc5c(c4C)COC5=O)CC3)C2=O)n1

pIC50 [2]: 7.57
SMILES: Cc1c([C@@H](O)CN2CCC3(CC2)CCN(c2ccns2)C3)ccc2c1COC2=O

SMILES: Cc1c([C@@H](O)CN2CCC3(CC2)CCN(c2ccns2)C3=O)ccc2c1COC2=O
Activity (Rattus norvegicus [3]): Active
Activity (Rattus norvegicus [4]): -6 mmHg
Activity (Rattus norvegicus [5]): inactive
Activity (Rattus norvegicus [11]): Active

SMILES: Cc1c([C@@H](O)[C@H](C)N2CCC3(CCN(c4ccc(=O)n(C)n4)C3=O)CC2)ccc2c1COC2=O
pIC50 [1]: < 4.22

SMILES: Cc1c([C@@H](O)CN2CCC3(CC2)CCN(c2cc(-c4ccccc4)no2)C3=O)ccc2c1COC2=O
pIC50 [1]: 7.27
Ratio IC50 (Homo sapiens): 0.11

SMILES: NS(=O)(=O)c1cc2c(cc1Cl)NCNS2(=O)=O [HYDROCHLOROTHIAZIDE]
Activity (Rattus norvegicus [16]): -7 mmHg

pIC50 [2]: 6.89
SMILES: Cc1c([C@@H](O)CN2CCC3(CC2)CCN(c2ccc(=O)n(C(F)F)n2)C3=O)ccc2c1COC2=O
pIC50 [1]: 4.72
Ratio IC50 (Homo sapiens): 147

pIC50 [2]: 6.24
SMILES: Cn1nc(N2CCC3(CCN(C[C@H](O)c4ccc(-n5cnnn5)nn4)CC3)C2=O)ccc1=O
pIC50 [1]: 5.51
Ratio IC50 (Homo sapiens): 5

pIC50 [2]: 6.72
clearance [7]: 30.3 mL/min/kg
Vd [8]: 4.4 L/kg
bioavailability [9]: 120%
AUC/dose (Rattus norvegicus [10]): 1.6 µM·kg·h/mg
half-life [12]: 2.6 h
SMILES: Cc1nccc(N2CCC3(CCN(C[C@H](O)c4ccc5c(c4C)COC5=O)CC3)C2=O)n1
Activity (Rattus norvegicus [3]): Active
Activity (Rattus norvegicus [4]): -11 mmHg
Activity (Rattus norvegicus [5]): inactive
Activity (Rattus norvegicus [11]): Active

SMILES: Cc1c([C@@H](O)CN2CCC3(CC2)CCN(c2cn(C)c(=O)cn2)C3=O)ccc2c1COC2=O
pIC50 [1]: < 4.22

clearance [7]: 128 mL/min/kg
Vd [8]: 21.5 L/kg
bioavailability [9]: 37%
AUC/dose (Rattus norvegicus [10]): 0.11 µM·kg·h/mg
half-life [12]: 2 h
SMILES: Cc1c([C@@H](O)CN2CCC3(CC2)CCN(c2ccncc2)C3=O)ccc2c1COC2=O

clearance [7]: 20.8 mL/min/kg
Vd [8]: 5 L/kg
bioavailability [9]: 66%
AUC/dose (Rattus norvegicus [10]): 1.2 µM·kg·h/mg
half-life [12]: 4.1 h
SMILES: COc1cc(N2CCC3(CCN(C[C@H](O)c4ccc5c(c4C)COC5=O)CC3)C2=O)ccn1

SMILES: CCn1nc(N2CCC3(CCN(C[C@H](O)c4ccc5c(c4C)COC5=O)CC3)C2=O)ccc1=O
pIC50 [1]: 5.12
Ratio IC50 (Homo sapiens): 99

pIC50 [2]: 5.98
SMILES: Cc1cc(=O)n(C)nc1N1CCC2(CCN(C[C@H](O)c3ccc4c(c3C)COC4=O)CC2)C1=O

Vd [13]: 1.7 L/kg
clearance [7]: 9.6 mL/min/kg
clearance [14]: 24.4 mL/min/kg
half-life [15]: 1.3 h
Vd [8]: 3 L/kg
bioavailability [9]: 47%
AUC/dose (Rattus norvegicus [10]): 1.8 µM·kg·h/mg
half-life [12]: 4.7 h
SMILES: COc1nsc(N2CCC3(CCN(C[C@H](O)c4ccc5c(c4C)COC5=O)CC3)C2=O)n1
Activity (Rattus norvegicus [3]): Active
Activity (Rattus norvegicus [4]): -23 mmHg
Activity (Rattus norvegicus [5]): inactive
Activity (Rattus norvegicus [11]): Active

pIC50 [6]: 7.92
pIC50 [2]: 7.74
clearance [7]: 23 mL/min/kg
Vd [8]: 3.2 L/kg
bioavailability [9]: 45%
AUC/dose (Rattus norvegicus [10]): 0.73 µM·kg·h/mg
half-life [12]: 2.4 h
SMILES: Cc1cc(N2CCC3(CCN(C[C@H](O)c4ccc5c(c4C)COC5=O)CC3)C2=O)sn1

pIC50 [2]: 5.12
SMILES: Cc1c([C@@H](O)CN2CCC3(CC2)CCN(c2ccn(C)c(=O)c2)C3=O)ccc2c1COC2=O

clearance [17]: 24.2 mL/min/kg
SMILES: Cc1c([C@@H](O)CN2CCC3(CC2)CCN(c2ccc(S(C)(=O)=O)cn2)C3)ccc2c1COC2=O

pIC50 [2]: 5.29
SMILES: Cc1c([C@@H](O)CN2CCC3(CC2)CN(c2ccns2)C(=O)O3)ccc2c1COC2=O
